Like-named read-outs stand apart in the source and are kept apart here.
Tests used:
Format in all cases: biochemical
Oxford sialidase [1] = test: One step chemiluminescence at pH 7.7 after adding Oxford sialidase (Experiment 6); conditions: pH 7.7, 0.25 units sialidase
Description: After incubation, 0.25 units of Oxford sialidase in 50 microliters of 50 micromolar acetate buffer was added. Chemiluminescence was spontaneously produced, rising to a maximum of 1380 RLU at 3.25 minutes (see FIG. 10).

Oxford sialidase [2] = test: Turner luminometer assay, incubation with Oxford sialidase at pH 5.5, then AMP pH 10 injection (Experiments 1-3)
Description: Next, 0.2 units of Oxford Enzyme were diluted with 400 microliters of […]. 200 microliters of the enzyme (0.1 units) were then treated with 10 microliters of the dioxetane stock and incubated at 37° C. for 15 minutes. The solution was then placed in a Turner luminometer. Light was detected at a constant 80 RLU at a pH of 5.5. All Turner readings were calibrated to 31.5° C.
5 microliters of the dioxetane stock prepared in Experiment 1 was added to 0.05 units of Oxford sialidase in 200 microliters of the pH 5.5 buffer. The solution (approximately a 110 micromolar substrate) was incubated at 37° C. for 15 minutes. The solution was then placed in a Turner luminometer, and steady light emission at about 55 RLU was noted (see FIG. 6). Next, 400 microliters of AMP pH 10 buffer was injected to produce an off-scale light spike (i.e., greater than 10,000 RLU).
Experiment 2 was repeated with a 110 micromolar substrate in the presence of 0.025 units of the enzyme. FIG. 7 illustrates that at a pH of 5.5, the light level obtained (56 RLU) was similar to that obtained in Experiment 2. […] Next, an additional 400 microliters of the AMP pH 10 buffer was added, which produced a light peak at 8860 RLU and similar decay kinetics as in Experiment 2.

sialidase [3] = tested on: sialidase
sialidase [4] = tested on: sialidase; remark: listed apart in the source
From the text: FIG. 12A is a graph showing chemiluminescence (RLU) as a function of sialidase dilution using a methylumbelliferyl-N-acetylneuraminic acid salt fluorescent substrate in a 0.05 M sodium acetate/0.1M NaCl buffer.
FIG. 12B is a graph showing signal to noise ratio (S/N) as a function of sialidase dilution for a methylumbelliferyl-N-acetylneuraminic acid salt fluorescent substrate in a 0.05 M sodium acetate/0.1M NaCl buffer.
The results and conditions are summarized in Table B and depicted graphically in FIGS. 12A and 12B.

Molecule: COC1(c2ccc(Cl)c(O[C@]3(C(=O)[O-])C[C@H](O)[C@@H](NC(C)=O)[C@H]([C@H](O)[C@H](O)CO)O3)c2)OOC12C1CC3CC2CC(Cl)(C3)C1.[Na+] (stereo partly drawn) [dioxetane 489-102]
- time of maximum chemiluminescence (Oxford sialidase [1]): 3.25 min
- maximum chemiluminescence (Oxford sialidase [1]; 31.5° C.): 1380 RLU
- light peak after AMP pH 10 buffer (Oxford sialidase [2]; 0.025 units enzyme): 8860 RLU
- light level at pH 5.5 (Oxford sialidase [2]; 0.025 units enzyme, 110 micromolar substrate): 56 RLU
- light emission relative to no enzyme noise at pH 5.5 (Oxford sialidase [2]; 0.05 units sialidase): about 275 times
- light spike after AMP pH 10 buffer (Oxford sialidase [2]; 0.05 units sialidase): greater than 10,000 RLU
- steady light emission at pH 5.5 (Oxford sialidase [2]; 0.05 units sialidase, approximately 110 micromolar substrate, 37° C. 15 minutes): about 55 RLU
- correlation of light emission at pH 5.5 with enzyme concentration (Oxford sialidase [2]; 0.05 versus 0.025 units): did not correlate with enzyme concentration
- peak light emission after 0.1 AMP pH 10 injection (Oxford sialidase [2]; 0.1 units enzyme): greater than 10,000 RLU
- light detected at pH 5.5 (Oxford sialidase [2]; 0.1 units enzyme, 10 microliters stock, 37° C. 15 minutes): 80 RLU
- substrate consumption during the incubation time (Oxford sialidase [2]; 0.1 units enzyme, 37° C. 15 minutes): near complete substrate consumption

Molecule: Methylumbelliferyl-N-acetylneuraminic acid salt
- sensitivity compared with neuraminidase-Star substrate (sialidase [3]): inferior sensitivity
- signal-to-noise ratio (sialidase [3]; dilution of 1:40,000): 1.79
- RLU (sialidase [4]): 75078 RLU
- S/N (sialidase [4]): 2.74
- RLU (sialidase [4]; dilution 1000): 4209078 RLU
- S/N (sialidase [4]; dilution 1000): 153.62
- RLU (sialidase [4]; dilution 5000): 1171002 RLU
- S/N (sialidase [4]; dilution 5000): 42.74
- RLU (sialidase [4]; dilution 25000): 263218 RLU
- S/N (sialidase [4]; dilution 25000): 9.61
- RLU (sialidase [4]; dilution 625000): 32200 RLU
- S/N (sialidase [4]; dilution 625000): 1.18
- RLU (sialidase [4]; dilution 3125000): 27538 RLU
- S/N (sialidase [4]; dilution 3125000): 1.01
- RLU (sialidase [4]; dilution 15625000): 28231 RLU
- S/N (sialidase [4]; dilution 15625000): 0.96

Reference: US6555698B1, “Chemiluminescent substrates for neuraminidase, assays for detection of neuraminidase and kits therefor” (Tropix, Inc., priority 1998, dated 2003)
